Counter-ions that a name gives are not always drawn.

By EC50 is commonly meant the concentration that produces a half-maximal response.

The target in this assay is T1, human ALX receptor (Homo sapiens, UniProt P25090).
T1 construct: expressed in transfected cells; host or cells: HEK293 (HEK293-hALXR-Gα16)
T1 sequence (P25090 1-351): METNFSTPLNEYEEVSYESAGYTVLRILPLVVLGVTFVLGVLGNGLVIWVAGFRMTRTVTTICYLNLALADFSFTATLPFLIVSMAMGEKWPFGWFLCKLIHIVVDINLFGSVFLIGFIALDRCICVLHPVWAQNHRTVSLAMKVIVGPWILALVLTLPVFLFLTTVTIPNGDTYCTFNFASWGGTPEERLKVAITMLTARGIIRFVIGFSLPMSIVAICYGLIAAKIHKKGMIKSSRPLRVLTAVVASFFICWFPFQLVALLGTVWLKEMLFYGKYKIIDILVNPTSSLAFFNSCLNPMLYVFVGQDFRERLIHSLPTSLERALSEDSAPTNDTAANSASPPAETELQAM
Kind of assay: Intracellular calcium measurements (FLIPR) in HEK293-hALXR-Gα16 cells, agonistic activity. The format is cell-based. The settings on record: values normalized to WKYMVm 10 nM. As for the experimental part: The ALX receptor and FPRL2 agonistic activities of the compounds of formula (I) are determined in accordance with the following experimental method.
Intracellular Calcium Measurements:
Cells expressing recombinant human ALX receptor and the G-protein Gα16 (HEK293-hALXR-Gα16) were grown to 80% confluency in Growing Medium (GM). Cells were detached from culture dishes with a cell dissociation buffer (Invitrogen, 13151-014), and collected by centrifugation at 1,000 rpm at rt for 5 min in Assay Buffer (AB) (equal parts of Hank's BSS (Gibco, 14065-049) and DMEM without Phenol Red (Gibco, 11880-028)). After 60 min incubation at 37° C. under 5% CO2 in AB supplemented with 1 μM Fluo-4 (AM) (Invitrogen, F14202), and 20 mM HEPES (Gibco, 15630-056), the cells were washed and resuspended in AB. They were then seeded onto 384-well FLIPR assay plates (Greiner, 781091) at 50,000 cells in 70 μl per well and sedimented by centrifugation at 1,000 rpm for 1 min. Stock solutions of test compounds were made up at a concentration of 10 mM in DMSO, and serially diluted in AB to concentrations required for activation dose response curves. WKYMVm (Phoenix Peptides) was used as a reference agonist. FLIPR384 or FLIPR Tetra instruments (Molecular Devices) were operated according to the manufacturer's standard instructions, adding 4 μl of test compound dissolved at 10 mM in DMSO and diluted prior to the experiment in assay buffer to obtain the desired final concentration. Changes in fluorescence were monitored before and after the addition of test compounds at lex=488 nm and lem=540 nm. Emission peak values above base level after compounds addition were exported after base line subtraction. Values were normalized to high-level control (WKYMVm compound, 10 nM final concentration) after subtraction of the base line value (AB addition).
In general terms: Calcium assays in cells follow changes in intracellular calcium, usually with a dye or a luminescent sensor.
In the case of `O=C(OCCC1CCNCC1)[C@H]1[C@H](C(=O)Nc2ccc(Br)nc2)[C@@H]2CC[C@H]1C21CC1` [Example 36, (1S,2R,3R,4R)-[2-(Piperidin-4-yl)ethyl 2-((6-bromopyridin-3-yl)carbamoyl)spiro[bicyclo[2.2.1]heptane-7,1′-cyclopropane]-3-carboxylate]hydrochloride], the EC50 stood at 0.4 nM.

On to `O=C(OCCN1CCNCC1)[C@H]1[C@H](C(=O)Nc2ccc(Br)nc2)[C@@H]2CC[C@H]1C21CC1` [Example 37, (1S,2R,3R,4R)-[2-(piperazin-1-yl)ethyl 2-((6-bromopyridin-3-yl)carbamoyl)spiro[bicyclo[2.2.1]heptane-7,1′-cyclopropane]-3-carboxylate]dihydrochloride], for which the EC50 is 1.4 nM. As for `O=C(OCCC1(F)CCNCC1)[C@H]1[C@H](C(=O)Nc2ccc(Br)nc2)[C@@H]2CC[C@H]1C21CC1` [Example 40, (1S,2R,3R,4R)-[2-(4-Fluoro-piperidin-4-yl)ethyl 2-((6-bromopyridin-3-yl)carbamoyl)spiro[bicyclo[2.2.1]heptane-7,1′-cyclopropane]-3-carboxylate]], the figure is 4.6 nM; as for `O=C(OCC1CCNCC1)[C@H]1[C@H](C(=O)Nc2ccc(Br)nc2)[C@@H]2CC[C@H]1C21CC1` [Example 41, (1S,2R,3R,4R)-[(Piperidin-4-yl)methyl 2-((6-bromopyridin-3-yl)carbamoyl)spiro[bicyclo[2.2.1]heptane-7,1′-cyclopropane]-3-carboxylate]hydrochloride], 5.2 nM; as for `Cc1cc(CNC(=O)[C@H]2[C@H](C(=O)OCCOCCN3CC[C@H](F)C3)[C@H]3CC[C@@H]2C32CC2)on1` [Example 42, (1S,2R,3R,4R)-[(S)-2-(2-(3-Fluoropyrrolidin-1-yl)ethoxy)ethyl 2-(((3-methylisoxazol-5-yl)methyl)carbamoyl)spiro[bicyclo[2.2.1]heptane-7,1′-cyclopropane]-3-carboxylate]], 7.2 nM. With `NCc1cccc(COC(=O)[C@H]2[C@H](C(=O)Nc3ccc(Br)nc3)[C@@H]3CC[C@H]2C32CC2)c1` [Example 45, (1S,2R,3R,4R)-[3-(Aminomethyl)benzyl 2-((6-bromopyridin-3-yl)carbamoyl)spiro[bicyclo[2.2.1]heptane-7,1′-cyclopropane]-3-carboxylate]] the figure was 9.3 nM. On to `Cc1cc(CNC(=O)[C@H]2[C@H](C(=O)OCCC3CCNCC3)[C@H]3CC[C@@H]2C32CC2)no1` [Example 47, (1S,2R,3R,4R)-[2-(Piperidin-4-yl)ethyl 2-(((5-methylisoxazol-3-yl)methyl)carbamoyl)spiro[bicyclo[2.2.1]heptane-7,1′-cyclopropane]-3-carboxylate]], for which the EC50 was found to be 9.7 nM. As for `O=C(OCCOCCN1CC[C@H](F)C1)[C@H]1[C@H](C(=O)Nc2ccc(Br)nc2)[C@@H]2CC[C@H]1C21CC1` [Example 48, (1S,2R,3R,4R)-[(S)-2-(2-(3-Fluoropyrrolidin-1-yl)ethoxy)ethyl 2-((6-bromopyridin-3-yl)carbamoyl)spiro[bicyclo[2.2.1]heptane-7,1′-cyclopropane]-3-carboxylate]], the figure is 9.9 nM; as for `Cc1cc(CNC(=O)[C@H]2[C@H](C(=O)OCCC3(F)CCNCC3)[C@H]3CC[C@@H]2C32CC2)on1` [Example 49, (1S,2R,3R,4R)-[2-(4-Fluoro-piperidin-4-yl)ethyl 2-(((3-methylisoxazol-5-yl)methyl)carbamoyl)spiro[bicyclo[2.2.1]heptane-7,1′-cyclopropane]-3-carboxylate]], 10.4 nM.

Consider `O=C(OCC1CCNCC1)[C@H]1[C@H](C(=O)Nc2ccc(Br)cc2)[C@@H]2CC[C@H]1C21CC1` [Example 50, (1S,2R,3R,4R)-[(Piperidin-4-yl)methyl 2-((4-bromophenyl)carbamoyl)spiro[bicyclo[2.2.1]heptane-7,1′-cyclopropane]-3-carboxylate]hydrochloride], for which the EC50 amounted to 10.8 nM. As for `Cc1cc(CNC(=O)[C@H]2[C@H](C(=O)OCC3(F)CCNCC3)[C@H]3CC[C@@H]2C32CC2)on1` [Example 51, (1S,2R,3R,4R)-[(4-Fluoro-piperidin-4-yl)methyl 2-(((3-methylisoxazol-5-yl)methyl)carbamoyl)spiro[bicyclo[2.2.1]heptane-7,1′-cyclopropane]-3-carboxylate]], the figure is 11.3 nM.

As to `Cc1cc(CNC(=O)[C@H]2[C@H](C(=O)OCC3CCNCC3)[C@H]3CC[C@@H]2C32CC2)on1` [Example 52, (1S,2R,3R,4R)-[(Piperidin-4-yl)methyl 2-(((3-methylisoxazol-5-yl)methyl)carbamoyl)spiro[bicyclo[2.2.1]heptane-7,1′-cyclopropane]-3-carboxylate]], the EC50 worked out at 11.5 nM.

As to `O=C(OCCCCN1CC[C@H](F)C1)[C@H]1[C@H](C(=O)Nc2ccc(Br)nc2)[C@@H]2CC[C@H]1C21CC1` [Example 53, (1S,2R,3R,4R)-[(S)-4-(3-Fluoropyrrolidin-1-yl)butyl 2-((6-bromopyridin-3-yl)carbamoyl)spiro[bicyclo[2.2.1]heptane-7,1′-cyclopropane]-3-carboxylate]], the EC50 was 11.9 nM. As for `O=C(OCCCCN1CCCC1)[C@H]1[C@H](C(=O)Nc2ccc(Br)nc2)[C@@H]2CC[C@H]1C21CC1` [Example 54, (1S,2R,3R,4R)-[4-(Pyrrolidin-1-yl)butyl 2-((6-bromopyridin-3-yl)carbamoyl)spiro[bicyclo[2.2.1]heptane-7,1′-cyclopropane]-3-carboxylate]], the EC50 turned out to be 14.6 nM. For the molecule `O=C(OCC1(F)CCNCC1)[C@H]1[C@H](C(=O)Nc2ccc(Br)nc2)[C@@H]2CC[C@H]1C21CC1` [Example 55, (1S,2R,3R,4R)-[(4-Fluoro-piperidin-4-yl)methyl 2-((6-bromopyridin-3-yl)carbamoyl)spiro[bicyclo[2.2.1]heptane-7,1′-cyclopropane]-3-carboxylate]], the EC50 was 18.5 nM. As for `O=C(OC1CCNCC1(F)F)[C@H]1[C@H](C(=O)Nc2ccc(Br)nc2)[C@@H]2CC[C@H]1C21CC1` (stereo partly drawn) [Example 56, (1S,2R,3R,4R)-[(3,3-Difluoro-piperidin-4-yl) 2-((6-bromopyridin-3-yl)carbamoyl)spiro[bicyclo[2.2.1]heptane-7,1′-cyclopropane]-3-carboxylate]], the figure is 28.2 nM. `Cc1cc(CNC(=O)[C@H]2[C@H](C(=O)OCCC3(F)CCNCC3)[C@H]3CC[C@@H]2C32CC2)no1` [Example 58, (1S,2R,3R,4R)-[2-(4-Fluoro-piperidin-4-yl)ethyl 2-(((5-methylisoxazol-3-yl)methyl)carbamoyl)spiro[bicyclo[2.2.1]heptane-7,1′-cyclopropane]-3-carboxylate]]: the EC50 was found to be 36.7 nM. As for `Cc1cc(CNC(=O)[C@H]2[C@H](C(=O)OCC3(F)CCNCC3)[C@H]3CC[C@@H]2C32CC2)no1` [Example 59, (1S,2R,3R,4R)-[(4-Fluoro-piperidin-4-yl)methyl 2-(((5-methylisoxazol-3-yl)methyl)carbamoyl)spiro[bicyclo[2.2.1]heptane-7,1′-cyclopropane]-3-carboxylate]], the figure is 41.4 nM. As for `O=C(OC1CCNCC1)[C@H]1[C@H](C(=O)NCc2ccc(Br)cc2F)[C@@H]2CC[C@H]1C21CC1` [Example 60, (1S,2R,3R,4R)-[Piperidin-4-yl 2-((4-bromo-2-fluorobenzyl)carbamoyl)spiro[bicyclo[2.2.1]heptane-7,1′-cyclopropane]-3-carboxylate]], the figure is 43.4 nM; as for `Cc1cc(CNC(=O)[C@H]2[C@H](C(=O)OC3CCNCC3(F)F)[C@H]3CC[C@@H]2C32CC2)on1` (stereo partly drawn) [Example 61, (1S,2R,3R,4R)-[(3,3-Difluoro-piperidin-4-yl) 2-(((3-methylisoxazol-5-yl)methyl)carbamoyl)spiro[bicyclo[2.2.1]heptane-7,1′-cyclopropane]-3-carboxylate]], 50.1 nM.

`Cc1cc(CNC(=O)[C@H]2[C@H](C(=O)OCCN3CCNCC3)[C@H]3CC[C@@H]2C32CC2)no1` [Example 63, (1S,2R,3R,4R)-[2-(piperazin-1-yl)ethyl 2-(((5-methylisoxazol-3-yl)methyl)carbamoyl)spiro[bicyclo[2.2.1]heptane-7,1′-cyclopropane]-3-carboxylate]]: the EC50 was found to be 79 nM.

(Values after US9187435B2, “Bridged Spiro[2.4]heptane ester derivatives” (Actelion Pharmaceuticals Ltd., priority 2010, dated 2015).)
